“And” between values parts separate entries of the source, which are not always exact repeats. Equal values may be shown once. Toxic doses and inconclusive results are not listed.
Test system: L1210 leukemia ip in BDF1 mice, survival T/C
Assay: NCI In Vivo Anticancer Drug Screen. Data for tumor model L1210 Leukemia (intraperitoneal) in B6D2F1 (BDF1) mice
Conditions: higher = longer survival
Method in brief: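 Antitumor effect is assessed in tumor-bearing animals. Survival in the compound arm is compared with a vehicle-dosed control arm and expressed as their quotient.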

[1] = endpoint: mean survival time, dose: 100.0 mg/kg/injection, schedule: Q04DX003 (ip), vehicle: saline with Tween-80
[2] = endpoint: mean survival time, dose: 100.0 mg/kg/injection, schedule: Q01DX009 (ip), vehicle: Klucel (hydroxypropylcellulose) (HPC)
[3] = endpoint: mean survival time, dose: 100.0 mg/kg/injection, schedule: Q04DX003 (ip), vehicle: Klucel (hydroxypropylcellulose) (HPC)
[4] = endpoint: mean survival time, dose: 200.0 mg/kg/injection, schedule: Q01DX009 (ip), vehicle: Klucel (hydroxypropylcellulose) (HPC)
[5] = endpoint: mean survival time, dose: 200.0 mg/kg/injection, schedule: Q04DX003 (ip), vehicle: Klucel (hydroxypropylcellulose) (HPC)
[6] = endpoint: mean survival time, dose: 400.0 mg/kg/injection, schedule: Q01DX009 (ip), vehicle: Klucel (hydroxypropylcellulose) (HPC)
[7] = endpoint: mean survival time, dose: 400.0 mg/kg/injection, schedule: Q04DX003 (ip), vehicle: Klucel (hydroxypropylcellulose) (HPC)
[8] = endpoint: mean survival time, dose: 200.0 mg/kg/injection, schedule: Q01DX001 (ip), vehicle: carboxymethylcellulose (CMC)
[9] = endpoint: mean survival time, dose: 200.0 mg/kg/injection, schedule: Q04DX003 (ip), vehicle: saline with Tween-80
[10] = endpoint: mean survival time, dose: 75.0 mg/kg/injection, schedule: Q01DX001 (ip), vehicle: saline

SMILES: CC(C)(C)CC(C)(C)c1ccc(Oc2ccc([N+](=O)[O-])cc2S(=O)(=O)O)cc1
- T/C [1]: 97 % of control

SMILES: NC(N)=NC(N)=Nc1ccc2ccccc2c1[N+](=O)[O-]
- T/C [2]: 94 % of control
- T/C [3]: 97 % of control
- T/C [4]: 100 % of control
- T/C [5]: 100 % of control
- T/C [6]: 98 % of control
- T/C [7]: 95 % of control

SMILES: CC(C)(C)C(=O)OCn1cnc2c(=N)n(O)cnc21
- T/C (endpoint: mean survival time, dose: 50.0 mg/kg/injection, schedule: Q01DX009 (ip), vehicle: Klucel (hydroxypropylcellulose) (HPC)): 103 % of control
- T/C [2]: 100 % of control
- T/C [3]: 97 % of control
- T/C [4]: 101 % of control
- T/C [5]: 108 % of control

SMILES: O=C(Nc1cccc2ccccc12)c1ccccc1O
- T/C (endpoint: mean survival time, dose: 50.0 mg/kg/injection, schedule: Q01DX001 (ip), vehicle: carboxymethylcellulose (CMC)): 113 % of control
- T/C (endpoint: mean survival time, dose: 100.0 mg/kg/injection, schedule: Q01DX001 (ip), vehicle: carboxymethylcellulose (CMC)): 108 % of control
- T/C [8]: 96 % of control
- T/C (endpoint: mean survival time, dose: 400.0 mg/kg/injection, schedule: Q01DX001 (ip), vehicle: carboxymethylcellulose (CMC)): 116 % of control

SMILES: C=C1N(C)c2ccc(Cl)cc2C1(C)C
- T/C (endpoint: mean survival time, dose: 50.0 mg/kg/injection, schedule: Q01DX009 (ip), vehicle: saline with Tween-80): 102 % of control
- T/C (endpoint: mean survival time, dose: 100.0 mg/kg/injection, schedule: Q01DX009 (ip), vehicle: saline with Tween-80): 98 % of control
- T/C [1]: 94 % of control
- T/C [9]: 96 % of control

SMILES: c1ccc(-c2[nH]c3ccccc3c2-c2ccccc2)cc1
- T/C (endpoint: mean survival time, dose: 50.0 mg/kg/injection, schedule: Q04DX003 (ip), vehicle: Klucel (hydroxypropylcellulose) (HPC)): 90 % of control
- T/C [2]: 106 % of control
- T/C [3]: 98 % of control
- T/C [4]: 103 % of control
- T/C [5]: 106 % of control
- T/C [6]: 96 % of control
- T/C [7]: 92 % of control

SMILES: O=C(NCc1ccccc1)c1ccccc1/C(=N/O)c1ccccc1
- T/C (endpoint: mean survival time, dose: 200.0 mg/kg/injection, schedule: Q01DX009 (ip), vehicle: saline with Tween-80): 86 % of control

SMILES: CCCCCCNC(=O)Oc1cccc(NC(=O)CC)c1
- T/C [1]: 104 % of control
- T/C [9]: 88 % of control
- T/C (endpoint: mean survival time, dose: 400.0 mg/kg/injection, schedule: Q04DX003 (ip), vehicle: saline with Tween-80): 102 % of control

SMILES: S=C(Cc1cc(Cl)ccc1Cl)N1CCOCC1
- T/C (endpoint: mean survival time, dose: 100.0 mg/kg/injection, schedule: Q04DX002 (ip), vehicle: Klucel (hydroxypropylcellulose) (HPC)): 95 % of control
- T/C (endpoint: mean survival time, dose: 200.0 mg/kg/injection, schedule: Q04DX002 (ip), vehicle: Klucel (hydroxypropylcellulose) (HPC)): 109 % of control
- T/C (endpoint: mean survival time, dose: 400.0 mg/kg/injection, schedule: Q04DX002 (ip), vehicle: Klucel (hydroxypropylcellulose) (HPC)): 98 % of control

SMILES: O=c1[nH]c(-c2ccccc2)nc2[nH]ncc12
- T/C [3]: 105 % of control
- T/C [5]: 92 % of control
- T/C [7]: 87 % of control

SMILES: O=C1C2C(C(=O)N1c1ccc([N+](=O)[O-])cc1)C1c3ccccc3C2C2CCCCN21 (stereo unspecified)
- T/C (endpoint: mean survival time, dose: 50.0 mg/kg/injection, schedule: Q01DX009 (ip), vehicle: saline): 95 % of control
- T/C (endpoint: mean survival time, dose: 50.0 mg/kg/injection, schedule: Q04DX003 (ip), vehicle: saline): 104 % of control
- T/C (endpoint: mean survival time, dose: 100.0 mg/kg/injection, schedule: Q01DX009 (ip), vehicle: saline): 92 % of control
- T/C (endpoint: mean survival time, dose: 100.0 mg/kg/injection, schedule: Q04DX003 (ip), vehicle: saline): 97 % of control
- T/C (endpoint: mean survival time, dose: 200.0 mg/kg/injection, schedule: Q04DX003 (ip), vehicle: saline): 88 % of control

SMILES: NC(=O)c1[nH]cnc1/N=N/N1CCCC1
- T/C (endpoint: mean survival time, dose: 125.0 mg/kg/injection, schedule: Q01DX Z (ip), vehicle: carboxymethylcellulose (CMC)): 103 % of control
- T/C (endpoint: mean survival time, dose: 375.0 mg/kg/injection, schedule: Q01DX Z (ip), vehicle: carboxymethylcellulose (CMC)): 105 % of control

SMILES: CNC(=S)N/N=C/c1ccc(N(C)CCC#N)cc1
- T/C [2]: 96 % of control
- T/C [4]: 93 % of control

SMILES: CC1CC(C)OS(=O)O1 (stereo unspecified)
- T/C (endpoint: mean survival time, dose: 44.0 mg/kg/injection, schedule: Q01DX Z (ip), vehicle: saline): 104 % of control
- T/C (endpoint: mean survival time, dose: 66.0 mg/kg/injection, schedule: Q01DX Z (ip), vehicle: saline): 102 % of control
- T/C (endpoint: mean survival time, dose: 75.0 mg/kg/injection, schedule: Q01DX001 (ip), vehicle: acetone): 103 % of control
- T/C (endpoint: mean survival time, dose: 100.0 mg/kg/injection, schedule: Q01DX Z (ip), vehicle: saline): 91 % of control
- T/C (endpoint: mean survival time, dose: 150.0 mg/kg/injection, schedule: Q01DX001 (ip), vehicle: acetone): 103 % of control
- T/C (endpoint: mean survival time, dose: 300.0 mg/kg/injection, schedule: Q01DX001 (ip), vehicle: acetone): 101 % of control

SMILES: CCCN(C)/N=N/c1nc[nH]c1C(N)=O
- T/C (endpoint: mean survival time, dose: 22.0 mg/kg/injection, schedule: Q01DX009 (ip), vehicle: carboxymethylcellulose (CMC)): 120 % of control
- T/C (endpoint: mean survival time, dose: 37.5 mg/kg/injection, schedule: Q01DX Z (ip), vehicle: carboxymethylcellulose (CMC)): 151 % of control
- T/C (endpoint: mean survival time, dose: 50.0 mg/kg/injection, schedule: Q01DX009 (ip), vehicle: carboxymethylcellulose (CMC)): 151 % of control
- T/C (endpoint: mean survival time, dose: 50.0 mg/kg/injection, schedule: Q01DX Z (ip), vehicle: carboxymethylcellulose (CMC)): 158 % of control
- T/C (endpoint: mean survival time, dose: 75.0 mg/kg/injection, schedule: Q01DX009 (ip), vehicle: carboxymethylcellulose (CMC)): 157 % of control
- T/C (endpoint: mean survival time, dose: 88.0 mg/kg/injection, schedule: Q01DX001 (ip), vehicle: carboxymethylcellulose (CMC)): 106 % of control
- T/C (endpoint: mean survival time, dose: 89.0 mg/kg/injection, schedule: Q01DX001 (ip), vehicle: carboxymethylcellulose (CMC)): 117 % of control
- T/C (endpoint: mean survival time, dose: 100.0 mg/kg/injection, schedule: Q01DX009 (ip), vehicle: carboxymethylcellulose (CMC)): 152 % of control
- T/C (endpoint: mean survival time, dose: 133.0 mg/kg/injection, schedule: Q01DX001 (ip), vehicle: carboxymethylcellulose (CMC)): 101 % of control and 124 % of control
- T/C [8]: 103 % of control
- T/C (endpoint: mean survival time, dose: 300.0 mg/kg/injection, schedule: Q01DX001 (ip), vehicle: carboxymethylcellulose (CMC)): 104 % of control and 117 % of control
- T/C (endpoint: median survival time, dose: 12.5 mg/kg/injection, schedule: Q01DX009 (ip), vehicle: steriod suspending solution): 116 % of control and 122 % of control
- T/C (endpoint: median survival time, dose: 50.0 mg/kg/injection, schedule: Q01DX009 (ip), vehicle: steriod suspending solution): 166 % of control
- T/C (endpoint: median survival time, dose: 100.0 mg/kg/injection, schedule: Q01DX009 (ip), vehicle: steriod suspending solution): 122 % of control

SMILES: COc1ccc(NC(=O)COc2ccc(Cl)cc2)cc1
- T/C [2]: 93 % of control
- T/C [3]: 100 % of control
- T/C [4]: 90 % of control
- T/C [5]: 106 % of control
- T/C [6]: 92 % of control
- T/C [7]: 93 % of control

SMILES: CCCCc1c(-c2ccccc2)nc(N)[nH]c1=O
- T/C (endpoint: mean survival time, dose: 100.0 mg/kg/injection, schedule: Q01DX001 (ip), vehicle: Klucel (hydroxypropylcellulose) (HPC)): 103 % of control
- T/C (endpoint: mean survival time, dose: 200.0 mg/kg/injection, schedule: Q01DX001 (ip), vehicle: Klucel (hydroxypropylcellulose) (HPC)): 102 % of control
- T/C (endpoint: mean survival time, dose: 400.0 mg/kg/injection, schedule: Q01DX001 (ip), vehicle: Klucel (hydroxypropylcellulose) (HPC)): 104 % of control

SMILES: C[N+]1([O-])C2CCC1CC(OC(=O)C(O)c1ccccc1)C2 (stereo unspecified)
- T/C [10]: 110 % of control
- T/C (endpoint: mean survival time, dose: 150.0 mg/kg/injection, schedule: Q01DX001 (ip), vehicle: saline): 100 % of control
- T/C (endpoint: mean survival time, dose: 300.0 mg/kg/injection, schedule: Q01DX001 (ip), vehicle: saline): 95 % of control

SMILES: CC(=O)CC(=O)Nc1ccc2ccccc2c1
- T/C [2]: 98 % of control
- T/C [3]: 92 % of control
- T/C [5]: 97 % of control
- T/C [7]: 92 % of control

SMILES: C[N+]1(C2CCCCC2)CCCCC1
- T/C (endpoint: mean survival time, dose: 10.0 mg/kg/injection, schedule: Q01DX001 (ip), vehicle: acetone): 96 % of control
- T/C (endpoint: mean survival time, dose: 10.0 mg/kg/injection, schedule: Q01DX001 (ip), vehicle: saline): 98 % of control
- T/C (endpoint: mean survival time, dose: 20.0 mg/kg/injection, schedule: Q01DX001 (ip), vehicle: acetone): 95 % of control
- T/C (endpoint: mean survival time, dose: 20.0 mg/kg/injection, schedule: Q01DX001 (ip), vehicle: saline): 95 % of control
- T/C (endpoint: mean survival time, dose: 40.0 mg/kg/injection, schedule: Q01DX001 (ip), vehicle: acetone): 102 % of control
- T/C (endpoint: mean survival time, dose: 40.0 mg/kg/injection, schedule: Q01DX001 (ip), vehicle: saline): 93 % of control
- T/C [10]: 101 % of control

SMILES: COC(=O)c1ccc(C(=O)OC)c(NC(=O)CC(=O)c2ccc([N+](=O)[O-])cc2)c1
- T/C [2]: 88 % of control
- T/C [3]: 101 % of control
- T/C [4]: 91 % of control
- T/C [5]: 90 % of control
- T/C [6]: 91 % of control
- T/C [7]: 96 % of control

SMILES: O=S(=O)(CBr)N1CCOCC1
- T/C (endpoint: mean survival time, dose: 50.0 mg/kg/injection, schedule: Q04DX003 (ip), vehicle: saline with Tween-80): 93 % of control
- T/C [1]: 98 % of control
- T/C [9]: 98 % of control

SMILES: CCCCOC(=N)Cc1cc(OC)c(OC)c(OC)c1
- T/C (endpoint: mean survival time, dose: 75.0 mg/kg/injection, schedule: Q04DX003 (ip), vehicle: saline with Tween-80): 98 % of control
- T/C (endpoint: mean survival time, dose: 150.0 mg/kg/injection, schedule: Q04DX003 (ip), vehicle: saline with Tween-80): 92 % of control
- T/C (endpoint: mean survival time, dose: 300.0 mg/kg/injection, schedule: Q04DX003 (ip), vehicle: saline with Tween-80): 98 % of control
